Measured values from PubChem BioAssay AID2202555 (NIEHS Division of Translational Toxicology (DTT)).
Inconclusive results are not listed. Active and inactive are the calls of the source. The rule behind the calls is not given here.

Test system: rat and mouse 2-year carcinogenicity bioassay, tumor evidence
Experiment: Consolidated carcinogenicity assay summary data
Settings: Route (rodents): Dosed feed
Text: Cancer Evaluation Criteria
The National Toxicology Program describes the results of individual experiments on a chemical agent and notes the strength of the evidence for conclusions regarding each study. […] Other organizations, such as the International Agency for Research on Cancer, assign a strength of evidence for conclusions based on an examination of all available evidence, including animal studies such as those conducted by the NTP, epidemiologic studies, and estimates of exposure. Thus, the actual determination of risk to humans from chemicals found to be carcinogenic in laboratory animals requires a wider analysis that extends beyond the purview of these studies.
Five categories of evidence of carcinogenic activity are used in the Technical Report series to summarize the strength of evidence observed in each experiment: two categories for positive results (clear evidence and some evidence); one category for uncertain findings (equivocal evidence); one category for no observable effects (no evidence); and one category for experiments that cannot be evaluated because of major flaws (inadequate study). These categories of interpretative conclusions were first adopted in June 1983 and then revised on March 1986 for use in the Technical Report series to incorporate more specifically the concept of actual weight of evidence of carcinogenic activity. For each separate experiment (male rats, female rats, male mice, female mice), one of the following five categories is selected to describe the findings. These categories refer to the strength of the experimental evidence and not to potency or mechanism.
For studies showing multiple chemical-related neoplastic effects that if considered individually would be assigned to different levels of evidence categories, the following convention has been adopted to convey completely the study results. In a study with clear evidence of carcinogenic activity at some tissue sites, other responses that alone might be deemed some evidence are indicated as "were also related" to chemical exposure. In studies with clear or some evidence of carcinogenic activity, other responses that alone might be termed equivocal evidence are indicated as "may have been" related to chemical exposure.
When a conclusion statement for a particular experiment is selected, consideration must be given to key factors that would extend the actual boundary of an individual category of evidence. Such consideration should allow for incorporation of scientific experience and current understanding of long-term carcinogenesis studies in laboratory animals, especially for those evaluations that may be on the borderline between two adjacent levels. These considerations should include:
- adequacy of the experimental design and conduct;
- occurrence of common versus uncommon neoplasia;
- progression (or lack thereof) from benign to malignant neoplasia as well as from preneoplastic to neoplastic lesions;
- some benign neoplasms have the capacity to regress but others (of the same morphologic type) progress. At present, it is impossible to identify the difference. Therefore, where progression is known to be a possibility, the most prudent course is to assume that benign neoplasms of those types have the potential to become malignant;
- combining benign and malignant tumor incidences known or thought to represent stages of progression in the same organ or tissue;
- latency in tumor induction;
- multiplicity in site -specific neoplasia;
- supporting information from proliferative lesions (hyperplasia) in the same site of neoplasia or in other experiments (same lesion in another sex or species);
- presence or absence of dose relationships;
- statistical significance of the observed tumor increase;
- concurrent control tumor incidence as well as the historical control rate and variability for a specific neoplasm;
- survival-adjusted analyses and false positive or false negative concerns;
- structure-activity correlations; and
[…]

| SMILES | carcinogen call |
| --- | --- |
| COc1ccc(N)cc1N | active; clear evidence |
| Cc1ccc(N)cc1N | active; clear evidence |
| NC(=O)NN=Cc1ccc([N+](=O)[O-])o1 | active; equivocal evidence |
| CCOc1ccc(NC(C)=O)cc1[N+](=O)[O-] | active; no evidence |
| Nc1ccc(Oc2ccc(N)cc2)cc1 | active; clear evidence |
| Nc1nc(N)c2nc(-c3ccccc3)c(N)nc2n1 | active; equivocal evidence |
| Cc1ncc[nH]1 | active; some evidence |
| O=C1NC(=O)C(c2ccccc2)(c2ccccc2)N1 | active; equivocal evidence |
| COP(=O)(OC)O/C(=C\Cl)c1cc(Cl)c(Cl)cc1Cl | active; no evidence |
| N=C1C=CC(=C(c2ccc(N)cc2)c2ccc(N)cc2)C=C1 | active; clear evidence |
| O=C(O)C1C(C(=O)O)C2(Cl)C(Cl)=C(Cl)C1(Cl)C2(Cl)Cl (stereo unspecified) | active; clear evidence |
| Cc1ccc(Cl)cc1N | active; no evidence |
| Nc1cc(S(=O)(=O)[O-])cc2cc(S(=O)(=O)[O-])c(N=Nc3ccc(-c4ccc(N=Nc5c(S(=O)(=O)[O-])cc6cc(S(=O)(=O)[O-])cc(N)c6c5[O-])c([O-])c4)cc3[O-])c([O-])c12.[Cu+2].[Cu+2].[Na+].[Na+].[Na+].[Na+] | active; some evidence |
| CCOc1ccc(NC(C)=O)cc1N | active; no evidence |
| O=C(O)c1ccc([N+](=O)[O-])cc1 | active; no evidence |
| Cc1ccc2c(c1N)C(=O)c1ccccc1C2=O | active; clear evidence |
| CN(C)c1ccc(C(c2ccccc2)c2ccc(N(C)C)cc2)cc1 | active; equivocal evidence |

| SMILES | carcinogen call |
| --- | --- |
| Nc1nc(N)nc(N)n1 | active; clear evidence |
| Nc1ccc2c(c1)C(=O)c1ccccc1C2=O | active; clear evidence |
| Cc1cc(Cl)ccc1N | active; no evidence |
| C=C(Cl)CSC(=S)N(CC)CC | active; clear evidence |
| CCCCOC(=O)c1ccccc1C(=O)OCc1ccccc1 | active; some evidence |
| CC(CCl)OP(=O)(OC(C)CCl)OC(C)CCl (stereo unspecified) | active; some evidence |
| Cc1ccc2c(c1[N+](=O)[O-])C(=O)c1ccccc1C2=O | active; clear evidence |
| Cc1ccc([N+](=O)[O-])cc1 | active; equivocal evidence |
| Nc1ccc(O)c([N+](=O)[O-])c1 | active; clear evidence |
| c1ccc(NNc2ccccc2)cc1 | active; clear evidence |
| OC(c1ccc(Cl)cc1)(c1ccc(Cl)cc1)C(Cl)(Cl)Cl | active; no evidence |
| O=NN(c1ccccc1)c1ccccc1 | active; clear evidence |
| CCCC[C@@H](C)[C@@H](OC(=O)C[C@@H](CC(=O)O)C(=O)O)[C@H](C[C@@H](C)C[C@H](O)CCCC[C@@H](O)C[C@H](O)[C@H](C)N)OC(=O)C[C@@H](CC(=O)O)C(=O)O | active; clear evidence |
| CN(C)c1ccc(Cc2ccc(N(C)C)cc2)cc1 | active; clear evidence |
| O=C1CN(N=Cc2ccc([N+](=O)[O-])o2)C(=O)N1 | active; some evidence |
| O=C([O-])c1cc(N=Nc2ccc(-c3ccc(N=Nc4c(O)ccc(N=Nc5cc(S(=O)(=O)[O-])ccc5[O-])c4[O-])cc3)cc2)ccc1O.[Cu+2].[Na+].[Na+] | active; no evidence |

Same assay, conditions: Route (rodents): Dosed water

| SMILES | carcinogen call |
| --- | --- |
| NC(=O)C1CO1 (stereo unspecified) | active; clear evidence |
| O=C(O)C(Cl)(Cl)Br | active; clear evidence |
| [O-][Cl+2]([O-])O | active; some evidence |
| O=C(O)C(Br)Br | active; some evidence |
| N#CC(Br)Br | active; clear evidence |
| CCOC(N)=O | active |

Same assay, conditions: Route (rodents): Gavage

| SMILES | carcinogen call |
| --- | --- |
| Clc1cc2oc3c(Cl)c(Cl)c(Cl)cc3c2cc1Cl | active |
| C=C1C/C(=C/C)C(=O)O[C@@H]2CCN3CC=C(COC(=O)[C@@]1(O)CO)[C@H]23 | active; clear evidence |
| CC(Cl)CCl (stereo unspecified) | active; no evidence |
| O=Cc1ccccc1 | active; no evidence |
| ClC(Br)Br | active; no evidence |
| C=CCc1ccc(OC)c(OC)c1 | active; clear evidence |
| ClCC(Cl)(Cl)Cl | active; equivocal evidence |
| ClCCCl | active; clear evidence |
| CN(C)c1ccc2nc3ccc(=[N+](C)C)cc-3sc2c1 | active; some evidence |
| Nc1cc([N+](=O)[O-])ccc1O | active; some evidence |
| O=c1ccc2ccccc2o1 | active; some evidence |
| Oc1ccc(Cl)cc1Cc1ccccc1 | active; no evidence |
| ClC(Cl)(Cl)C(Cl)(Cl)Cl | active; clear evidence |
| C[C@]12CCC(=O)C=C1CC[C@@H]1[C@@H]2CC[C@]2(C)C(=O)CC[C@@H]12 | active; equivocal evidence |
| CC=Cc1ccc(O)c(OC)c1 | active; equivocal evidence |
| OC(O)C(Cl)(Cl)Cl | active |
| Nc1ccc(O)c(N)c1 | active; no evidence |
| S=c1[nH]c2ccccc2s1 | active; some evidence |
| CCCN(CCC)S(=O)(=O)c1ccc(C(=O)O)cc1 | active; no evidence |

| SMILES | carcinogen call |
| --- | --- |
| CC=CC=CC=O | active; clear evidence |
| ClC(Cl)C(Cl)(Cl)Cl | active; equivocal evidence |
| C=CCN=C=S | active; clear evidence |
| c1cc(OCC2CO2)cc(OCC2CO2)c1 (stereo unspecified) | active; clear evidence |
| c1ccccc1 | active; clear evidence |
| COc1c(Cl)c(Cl)c(Cl)c(Cl)c1Cl | active; some evidence |
| C=CCOC(=O)CC(C)C | active; clear evidence |
| C=CC(=O)OCC | active; clear evidence |
| O=C1CCc2ccccc2O1 | active; some evidence |
| NC=O | active; no evidence |
| CC(C)(c1cc(Br)c(O)c(Br)c1)c1cc(Br)c(O)c(Br)c1 | active; equivocal evidence |
| CC(O)c1ccccc1 (stereo unspecified) | active; some evidence |
| ClC(Cl)Cl | active; clear evidence |
| O=P(OCCCl)(OCCCl)OCCCl | active; clear evidence |
| ClC(Cl)C(Cl)Cl | active; equivocal evidence |
| [Cl-].[Cl-].[Hg+2] | active; some evidence |
| CC(C)=CCl | active; clear evidence |
| OCc1c[nH]c2ccccc12 | active; no evidence |
| CCCCC(CC)COP(=O)(OCC(CC)CCCC)OCC(CC)CCCC (stereo unspecified) | active; equivocal evidence |

Same assay, conditions: Route (rodents): Gavage; Second Route: Dosed Feed

| SMILES | carcinogen call |
| --- | --- |
| CC(=O)OCc1ccccc1 | active; equivocal evidence |

Same assay, conditions: Route (rodents): Gavage; Second Route: Dosed Water

| SMILES | carcinogen call |
| --- | --- |
| ClC(Cl)Br | active; clear evidence |

Same assay, conditions: Route (rodents): Inhalation

| SMILES | carcinogen call |
| --- | --- |
| CC(=O)CC(C)C | active; some evidence |
| CCC1CO1 (stereo unspecified) | active; clear evidence |
| CCc1ccccc1 | active; clear evidence |
| [O]=[Mo](=[O])=[O] | active; equivocal evidence |
| CC(C)CON=O | active; clear evidence |
| ClC(Cl)=C(Cl)Cl | active; clear evidence |
| FC(F)=C(F)F | active; clear evidence |
| O.O.O.O.O.O.O.O=S(=O)([O-])[O-].[Co+2] | active; some evidence |
| CCCCOCCO | active; no evidence |
| [Co] | active; clear evidence |
| [P]#[In] | active; clear evidence |
| C=CC=C | active |
| C=CCOCC1CO1 (stereo unspecified) | active; equivocal evidence |

Same assay, conditions: Route (rodents): Inhalation; Second Route: Gavage

| SMILES | carcinogen call |
| --- | --- |
| BrCCBr | active; clear evidence |
| C=C(Cl)Cl | active; clear evidence |

Same assay, conditions: Route (rodents): Interperitoneal

| SMILES | carcinogen call |
| --- | --- |
| S=P(N1CC1)(N1CC1)N1CC1 | active; clear evidence |
| Nc1ncn([C@@H]2O[C@H](CO)[C@@H](O)[C@H]2O)c(=O)n1 | active; inadequate study |
